Values of other authors as cited in patent US8883408B2, “Tissue implants for implantation and methods of preparing the same” (CryoLife, Inc., priority 2010, dated 2014).

System: sensitive bacteria
Details: literature review

SMILES: NCC[C@H](O)C(=O)N[C@@H]1C[C@H](N)[C@@H](O[C@H]2O[C@H](CN)[C@@H](O)[C@H](O)[C@H]2O)[C@H](O)[C@H]1O[C@H]1O[C@H](CO)[C@@H](O)[C@H](N)[C@H]1O [amikacin]
- minimum inhibitory concentration against sensitive bacteria (MIC) range: 0.125 to 32 µg/mL
